This note sets out measurements from ChEMBL document CHEMBL5653631, “A Potent and Selective ULK1 Inhibitor Suppresses Autophagy and Sensitizes Cancer Cells to Nutrient Stress” (iScience, 2018).

The target in assay [1] is T1, Ephrin type-B receptor 4 (Homo sapiens) (UniProt P54760).
T1 sequence (whole entry): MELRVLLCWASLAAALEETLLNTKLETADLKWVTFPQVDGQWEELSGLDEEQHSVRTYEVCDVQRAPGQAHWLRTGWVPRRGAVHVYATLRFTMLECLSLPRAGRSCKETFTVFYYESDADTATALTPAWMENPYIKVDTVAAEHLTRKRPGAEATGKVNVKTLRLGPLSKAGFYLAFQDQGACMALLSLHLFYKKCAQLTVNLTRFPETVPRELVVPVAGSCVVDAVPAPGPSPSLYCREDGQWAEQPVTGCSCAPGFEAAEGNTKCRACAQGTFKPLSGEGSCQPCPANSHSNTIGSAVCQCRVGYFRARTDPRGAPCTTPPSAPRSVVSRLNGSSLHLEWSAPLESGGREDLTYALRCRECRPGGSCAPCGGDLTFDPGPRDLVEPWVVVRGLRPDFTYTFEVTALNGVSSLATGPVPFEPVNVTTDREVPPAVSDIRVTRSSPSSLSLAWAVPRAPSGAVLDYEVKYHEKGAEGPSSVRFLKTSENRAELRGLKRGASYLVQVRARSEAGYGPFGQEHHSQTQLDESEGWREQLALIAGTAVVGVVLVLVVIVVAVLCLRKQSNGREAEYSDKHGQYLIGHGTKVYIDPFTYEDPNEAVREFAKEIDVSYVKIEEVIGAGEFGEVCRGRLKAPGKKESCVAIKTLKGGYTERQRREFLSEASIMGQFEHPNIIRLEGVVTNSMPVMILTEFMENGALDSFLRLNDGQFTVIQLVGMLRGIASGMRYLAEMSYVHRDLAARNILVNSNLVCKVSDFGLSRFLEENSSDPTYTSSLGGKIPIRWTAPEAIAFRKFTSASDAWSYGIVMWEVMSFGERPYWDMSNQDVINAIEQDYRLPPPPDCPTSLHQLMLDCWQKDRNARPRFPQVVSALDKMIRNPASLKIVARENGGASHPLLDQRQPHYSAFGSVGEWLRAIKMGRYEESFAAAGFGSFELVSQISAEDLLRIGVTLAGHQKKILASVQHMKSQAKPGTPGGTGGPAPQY
Nature of the assay: Inhibition of human recombinant EphB4 at 15 nM related to control ULK1.

For assay [2], the target named is T2, Tyrosine-protein kinase TXK (Homo sapiens) (UniProt P42681).
T2 sequence (whole entry): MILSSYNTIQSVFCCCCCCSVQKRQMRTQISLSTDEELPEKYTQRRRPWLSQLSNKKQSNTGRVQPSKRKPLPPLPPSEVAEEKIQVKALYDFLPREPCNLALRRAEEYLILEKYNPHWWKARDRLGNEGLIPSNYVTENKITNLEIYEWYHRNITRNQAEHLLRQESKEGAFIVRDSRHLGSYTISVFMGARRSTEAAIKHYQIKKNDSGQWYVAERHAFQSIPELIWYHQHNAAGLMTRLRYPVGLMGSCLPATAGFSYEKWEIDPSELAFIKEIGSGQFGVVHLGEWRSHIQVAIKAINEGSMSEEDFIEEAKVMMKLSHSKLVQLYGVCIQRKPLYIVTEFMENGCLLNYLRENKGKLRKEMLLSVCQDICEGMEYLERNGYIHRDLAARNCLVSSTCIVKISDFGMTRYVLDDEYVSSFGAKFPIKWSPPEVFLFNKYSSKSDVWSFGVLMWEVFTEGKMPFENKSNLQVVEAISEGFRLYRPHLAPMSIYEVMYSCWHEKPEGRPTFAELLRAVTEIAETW
Nature of the assay: Inhibition of human recombinant TXK at 40 nM in presence of ATP by radiometric assay relative to control.

Assay [3] addresses T3, Serine/threonine-protein kinase ULK3 (Homo sapiens) (UniProt Q6PHR2).
T3 sequence (whole entry): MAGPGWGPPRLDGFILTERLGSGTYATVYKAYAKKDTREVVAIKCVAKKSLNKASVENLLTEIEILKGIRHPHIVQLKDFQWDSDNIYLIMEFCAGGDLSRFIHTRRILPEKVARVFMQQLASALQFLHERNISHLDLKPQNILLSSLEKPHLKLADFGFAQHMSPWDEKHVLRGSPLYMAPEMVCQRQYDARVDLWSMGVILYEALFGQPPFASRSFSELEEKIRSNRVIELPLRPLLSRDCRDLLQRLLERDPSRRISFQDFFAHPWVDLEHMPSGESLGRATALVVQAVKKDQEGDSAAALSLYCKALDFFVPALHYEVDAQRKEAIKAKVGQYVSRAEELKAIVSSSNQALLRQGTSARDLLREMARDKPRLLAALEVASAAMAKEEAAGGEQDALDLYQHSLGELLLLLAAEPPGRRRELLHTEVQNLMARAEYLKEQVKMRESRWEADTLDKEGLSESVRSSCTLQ
In words: Inhibition of human recombinant ULK3 at 500 nM related to control ULK1.

The target of assay [4] is Tyrosine-protein kinase JAK1 (Homo sapiens) (UniProt P23458). In words: Inhibition of human recombinant JAK1 at 500 nM related to control ULK1.
Chain of Tyrosine-protein kinase JAK1 (Homo sapiens) (P23458 whole entry): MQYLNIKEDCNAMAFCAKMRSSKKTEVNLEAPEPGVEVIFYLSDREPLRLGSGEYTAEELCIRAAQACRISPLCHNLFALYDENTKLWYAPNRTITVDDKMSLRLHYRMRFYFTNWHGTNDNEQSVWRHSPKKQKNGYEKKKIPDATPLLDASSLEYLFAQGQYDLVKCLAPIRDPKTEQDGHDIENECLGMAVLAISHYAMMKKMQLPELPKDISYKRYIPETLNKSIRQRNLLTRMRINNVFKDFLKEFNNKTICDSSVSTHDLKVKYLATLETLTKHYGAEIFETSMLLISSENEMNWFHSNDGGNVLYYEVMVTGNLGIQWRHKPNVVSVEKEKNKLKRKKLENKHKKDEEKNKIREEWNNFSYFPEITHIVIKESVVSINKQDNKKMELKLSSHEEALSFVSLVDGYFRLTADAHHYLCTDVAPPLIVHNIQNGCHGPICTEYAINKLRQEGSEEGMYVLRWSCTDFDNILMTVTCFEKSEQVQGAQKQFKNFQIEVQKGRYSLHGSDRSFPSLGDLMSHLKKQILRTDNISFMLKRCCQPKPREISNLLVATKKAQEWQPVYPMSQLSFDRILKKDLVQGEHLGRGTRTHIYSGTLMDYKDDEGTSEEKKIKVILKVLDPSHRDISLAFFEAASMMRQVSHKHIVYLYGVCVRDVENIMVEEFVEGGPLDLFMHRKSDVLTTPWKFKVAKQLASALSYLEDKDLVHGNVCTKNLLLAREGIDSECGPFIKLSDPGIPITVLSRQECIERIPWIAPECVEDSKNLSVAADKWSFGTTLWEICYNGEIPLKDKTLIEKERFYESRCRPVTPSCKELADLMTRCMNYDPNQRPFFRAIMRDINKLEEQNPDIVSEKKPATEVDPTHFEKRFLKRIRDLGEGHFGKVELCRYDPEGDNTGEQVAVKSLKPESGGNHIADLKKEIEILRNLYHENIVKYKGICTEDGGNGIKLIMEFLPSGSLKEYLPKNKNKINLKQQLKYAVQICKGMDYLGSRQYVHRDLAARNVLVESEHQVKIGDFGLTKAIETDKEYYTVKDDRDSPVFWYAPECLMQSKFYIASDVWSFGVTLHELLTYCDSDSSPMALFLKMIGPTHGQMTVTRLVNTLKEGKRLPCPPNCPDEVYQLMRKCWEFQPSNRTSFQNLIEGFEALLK
Assay [5] addresses Tyrosine-protein kinase Fes/Fps (Homo sapiens) (UniProt P07332). In words: Inhibition of human recombinant FES at 500 nM related to control ULK1.

Chain of Tyrosine-protein kinase Fes/Fps (Homo sapiens) (P07332 whole entry): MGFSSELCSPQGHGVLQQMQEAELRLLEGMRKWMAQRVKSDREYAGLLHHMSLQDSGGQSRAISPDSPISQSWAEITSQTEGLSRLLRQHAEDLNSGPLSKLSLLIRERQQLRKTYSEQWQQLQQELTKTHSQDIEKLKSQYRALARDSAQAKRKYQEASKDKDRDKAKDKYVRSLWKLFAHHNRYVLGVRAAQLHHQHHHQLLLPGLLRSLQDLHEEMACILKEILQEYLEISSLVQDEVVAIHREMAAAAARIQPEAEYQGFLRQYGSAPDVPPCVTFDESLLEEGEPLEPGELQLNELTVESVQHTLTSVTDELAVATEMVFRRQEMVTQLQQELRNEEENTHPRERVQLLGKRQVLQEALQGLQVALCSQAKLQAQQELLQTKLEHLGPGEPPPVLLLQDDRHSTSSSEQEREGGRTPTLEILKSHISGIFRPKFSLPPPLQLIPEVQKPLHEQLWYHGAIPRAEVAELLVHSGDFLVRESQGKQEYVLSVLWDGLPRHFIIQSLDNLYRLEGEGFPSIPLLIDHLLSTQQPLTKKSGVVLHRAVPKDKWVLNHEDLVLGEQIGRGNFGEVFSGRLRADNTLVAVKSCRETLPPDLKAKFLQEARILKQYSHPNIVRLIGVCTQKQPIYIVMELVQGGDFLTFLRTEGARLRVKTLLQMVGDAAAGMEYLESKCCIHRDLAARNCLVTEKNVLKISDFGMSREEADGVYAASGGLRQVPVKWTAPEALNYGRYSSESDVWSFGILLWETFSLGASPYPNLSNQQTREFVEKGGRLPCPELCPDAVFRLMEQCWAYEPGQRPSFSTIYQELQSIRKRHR

With `CC(C)[C@H](NC(=O)c1cc(-c2cnn3cc(-c4ccc(OCCN5CCCCC5)cc4)cnc23)cs1)C(F)(F)F`, the fold change (FC) in assay [1] came to 0.03.
As a reminder, the inhibition is the share of the control response that was lost under treatment. Turning to `O=C(N[C@@H](C1CC1)C(F)(F)F)c1cc(-c2cnn3cc(-c4ccc(F)cc4)cnc23)cs1`, in assay [2], the inhibition stood at 13%.
Consider `CNC(=O)c1ccccc1Oc1nc(Nc2cc(OC)c(OC)c(OC)c2)ncc1Br`, for which the fold change (FC) in assay [3] came out at 1.14; in assay [4] it was 0.53; in assay [5], 0.38.
